Paper PMC11251039, “Harnessing cholesterol uptake of malaria parasites for therapeutic applications” (EMBO Molecular Medicine, 2024)
“And” between values parts separate entries of the source, which are not always exact repeats. Equal entries are not always repeated. Where two headings read alike, the source gives them in different places.

Columns and labels:
[1] = system: asexual P. falciparum 3D7 wild-type parasites; experiment: P. falciparum asexual growth inhibition assay (SYBR Safe DNA replication); format: cell-based, Plasmodium falciparum; conditions: for P. falciparum asexual growth, percentage of control: replicate values, source data Fig. 2B, listed as BC5B; for IC90 / IC50: Plasmodium falciparum; for IC50: read-out: IC50, P. falciparum asexual growth inhibition
How it was run: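 Sorbitol-synchronised ring-stage cultures at 1% parasitaemia and 1% haematocrit were exposed to 2-fold compound dilutions at 37 °C under microaerophilic conditions for 24, 48 or 72 h. Growth was read by SYBR Safe fluorescence of freeze-thaw lysates, with 200 nM chloroquine or artesunate defining background.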

[2] = system: P. falciparum stage III–IV gametocytes; experiment: P. falciparum gametocyte viability assay (MitoTracker, flow cytometry), stage III-IV; format: cell-based, Plasmodium falciparum; conditions: 48 h; for Gametocyte stage III-IV viability, percentage of control: replicate values, source data Fig. 2C, listed as BC5B
Description: Gametocyte assays commenced seven days (stage III–IV) or ten days (stage V) post-invasion. […]
Plasmodium falciparum Gametocyte Viability Assays:
Asexual P. falciparum parasites were induced to form gametocytes as described (21).
Synchronized trophozoite-stage parasites at 2% parasitaemia were incubated overnight and […]
haematocrit maintained at 4%. On the subsequent day (designated as day 0) of gametocytogenesis, the culture containing early ring-stage parasites was first purified by sorbitol synchronisation to remove asynchronous trophozoites, and passed through a magnetic field in a sterile MACS® column in a SuperMACSTM II magnet to remove remaining late-stage parasites or later-stage gametocytes (negative selection). The culture medium was supplemented with 50 mM N-acetyl-D-glucosamine to inhibit asexual parasite proliferation, and changed daily. Sorbitol treatment was performed on Day 1, 5, and 6 to further remove asexual parasites. Gametocytes were magnetically enriched (positive selection) in a sterile column with a SuperMACSTM II magnet and eluted in culture media with 50 mM N-acetyl-D-glucosamine. These gametocytes were incubated overnight at 37 °C under microaerophilic conditions, and purity was assessed by examination under a light microscope (400× […]
Gametocyte viability was assessed as described by Ridgway et al. (21) with modifications.
Compounds or solvent controls (DMSO) were serially diluted across 96-well plates in culture media supplemented with 50 mM N-acetyl-D-glucosamine. Culture media without compound was used as a negative control. […]
control to determine background gametocyte fluorescence. Stage III-IV gametocytes (Day 7) or stage V (day 10) gametocytes were concentrated and added to the plate with 200 µL per well. The plate was incubated for 48 hours at 37 °C under humid microaerophilic conditions.
Parasites were then stained with 500 nM MitoTrackerTM Deep Red FM and 5 μg/ml Hoechst […]
cytometer as described above. […]
excluded. Live (positive) and dead (negative) gametocytes were differentiated by […]
percentage of each was calculated. […]

[3] = system: human hepatoma cells (Huh7); experiment: Human hepatoma viability assay (CellTiter-Blue); format: cell-based; conditions: for Huh7 viability, dose-response data points (Figure 3F): replicate data points, listed as BC5B
Description: Huh7 hepatoma viability assays were conducted in the same manner as the P. berghei assays, with metabolic capacity (indicating viability) measured with a fluorescence microplate reader after incubation with CellTiter-Blue® (Promega) for 3 h.
Appendix Fraser/Curtis et al. […]
Human Hepatoma Viability Assays:
The Huh7 hepatoma cell line (ATCC) was maintained under routine culture conditions in Dulbecco's Modified Eagle Medium (DMEM) containing 3.7 g/L NaHCO3 supplemented with 10% foetal bovine serum (FBS), 100 units/mL penicillin, and 100 μg/mL streptomycin at 37 °C in a humidified 5% CO2 incubator.
Viability assays were performed in parallel to the P. berghei growth inhibition. 10,000 Huh7 cells were seeded in 96-well and dark-sided microplates (Greiner Bio One) and cultured at 37°C, 5% CO2 and 80% humidity. The next day, the media was replaced with compounds or solvent controls (DMSO) serially diluted in culture media. Media was partially replaced with new drug dilutions over the following two days. After 48 hours, CellTiter-Blue® (Promega) was added according to the manufacturer’s instructions and incubated for 3 hours. Fluorescence intensity was measured with 530/25 ex and 590/20 em in a Synergy HTX plate reader (Agilent).

For COc1cc(NC(C)CCCNC(=O)CCC(=O)O[C@H]2CC[C@H]3[C@@H]4CC=C5C[C@@H](O)CC[C@]5(C)[C@H]4CC[C@]23C)c2ncccc2c1 (stereo partly shown) [C-17-PQ], the “Fold lower IC50 than primaquine alone” value [1] was ~ 4 fold, the “P. falciparum asexual growth, percentage of control” value ([1]; 0.154296880 uM, 24 h) was 115.9% and 112.2% and 101.3% and 107.1% and 95.84% and 88.53% and 98.99% and 116.6% and 76.11% and the “P. falciparum asexual growth, percentage of control” value ([1]; 0.308593750 uM, 24 h) was 125.5% and 115.5% and 91.68% and 117.9% and 88.81% and 84.79% and 114.9% and 109.1% and 95.02%. The “P. falciparum asexual growth, percentage of control” value ([1]; 0.617187500 uM, 24 h) was 131.7% and 113.6% and 103% and 85.01% and 97.93% and 83.36% and 109% and 162.3% and 97.26%, the “P. falciparum asexual growth, percentage of control” value ([1]; 1.234375000 uM, 24 h) was 120.1% and 114.6% and 99.7% and 107.3% and 77.37% and 93.38% and 101.7% and 96.22% and 102.4% and the “P. falciparum asexual growth, percentage of control” value ([1]; 2.468750000 uM, 24 h) was 89.52% and 83.68% and 69.39% and 87.34% and 56.13% and 47.54% and 76.36% and 68.29% and 79.29%. For the same compound, the “P. falciparum asexual growth, percentage of control” value ([1]; 4.937500000 uM, 24 h) was 14.72% and 24.05% and 6.418% and 5.536% and -2.79% and -3.361% and 18.05% and 30.2% and 18.39%, the “P. falciparum asexual growth, percentage of control” value ([1]; 9.875000000 uM, 24 h) was 13.15% and 2.413% and -18.71% and -3.317% and -20.54% and -27.66% and -1.156% and -7.164% and -20.57% and the “P. falciparum asexual growth, percentage of control” value ([1]; 19.750000000 uM, 24 h) was -9.926% and -19.32% and -11.56% and 3.097% and -3.493% and -18.72% and 17.43% and -16.64% and -32.93%. The “Fold difference in IC90 to primaquine” value ([1]; 24 h) was ~ 8 fold, the “Hill slope of inhibitory curve” value ([1]; 24 h) was −4.56 and the “Hill slope of inhibitory curve” value ([1]; 72 h) was −4.20. The IC90 ([1]; 3D7, 24 h) was 5 µM, the IC50 ([1]; 3D7, 24 h, 24 h, starting at ring stages) was 3100 nM and the IC50 ([1]; 3D7, 48 h, 48 h) was 3000 nM. The IC90 ([1]; 3D7, 72 h) was 4 µM, the IC50 ([1]; 3D7, 72 h, 72 h) was 2400 nM and the “Gametocyte stage III-IV viability, percentage of control” value ([2]; 0.390625000 uM, 0.390625 µM) was 106.6% and 106.4% and 106.3% and 105.9% and 97.84% and 98.56% and 99.18% and 96.09% and 94.81% and 99.34% and 96.51%. For the same compound, the “Gametocyte stage III-IV viability, percentage of control” value ([2]; 0.781250000 uM, 0.78125 µM) was 105.6% and 103.6% (2×) and 99.85% and 95.38% and 98.97% and 96.71% and 98.76% and 95.09% and 98.49% and 100.2%, the “Gametocyte stage III-IV viability, percentage of control” value ([2]; 1.562500000 uM, 1.5625 µM) was 98.2% and 92.41% and 99.85% and 96.05% and 86.9% and 96.5% and 96.91% and 95.26% and 86.31% and 88.01% and 87.16% and the “Gametocyte stage III-IV viability, percentage of control” value ([2]; 3.125000000 uM, 3.125 µM) was 76.23% and 73.04% and 83.77% and 78.85% and 72.15% and 82.91% and 79.82% and 79.41% and 67.61% and 67.33% and 65.91%. For the same compound, the “Gametocyte stage III-IV viability, percentage of control” value ([2]; 6.250000000 uM, 6.25 µM) was 47.47% and 48.87% and 53.06% and 57.19% and 51.38% and 37.08% and 52.02% and 49.97% and 47.91% and 50.9% (2×) and 52.03%, the “Gametocyte stage III-IV viability, percentage of control” value ([2]; 12.500000000 uM, 12.5 µM) was 32.49% and 39.99% and 32.61% and 29.26% and 32.88% and 27.73% and 25.88% and 43.81% and the “Gametocyte stage III-IV viability, percentage of control” value ([2]; 25.000000000 uM) was 17.71% and 16.11% and 15.11% and 33.28% and 21.89% and 14.3% and 17.64% and 12.08% and 12.7% and 13.79% and 6.704% and 7.271%. The “Gametocyte stage III-IV viability, percentage of control” value ([2]; 50.000000000 uM) was 5.639% and 8.492% and 6.658% and 16.42% and 3.442% and -2.383% and -3.188% and -11.09% and -14.21% and 3.059% and -3.824% and -12.14%, the “Gametocyte stage III-IV viability, percentage of control” value ([2]; 100.000000000 uM) was 3.289% and 0.9211% and -0.4605% and 9.774% and -7.24% and -17.63% and -19.17% and -25.26% and -26.31% and -15.93% and -26.87% and -31.48% and the “Fold reduction in IC50 compared to primaquine alone” value [2] was 9 fold. The viability at 0.390625 µM ([2]; Plasmodium falciparum, read-out: Gametocyte stage III-IV viability, percentage of control, 0.390625000 uM, 48 h, replicate values, source data Fig. 2C) was 105%, the viability at 0.78125 µM ([2]; Plasmodium falciparum, read-out: Gametocyte stage III-IV viability, percentage of control, 0.781250000 uM, 48 h, replicate values, source data Fig. 2C) was 101% and the viability at 1.5625 µM ([2]; Plasmodium falciparum, read-out: Gametocyte stage III-IV viability, percentage of control, 1.562500000 uM, 48 h, replicate values, source data Fig. 2C) was 95%. It also gave a viability at 3.125 µM ([2]; Plasmodium falciparum, read-out: Gametocyte stage III-IV viability, percentage of control, 3.125000000 uM, 48 h, replicate values, source data Fig. 2C) of 72.4%, a viability at 12.5 µM ([2]; Plasmodium falciparum, read-out: Gametocyte stage III-IV viability, percentage of control, 12.500000000 uM, 48 h, replicate values, source data Fig. 2C) of 31.7% and an IC50 ([2]; Plasmodium falciparum, read-out: IC50, P. falciparum gametocyte stage III-IV inhibition, 48 h) of 7.1 µM. The “Huh7 viability, dose-response data points (Figure 3F)” value (shortened to “Huh7 viability”) ([3]; 0.015241580 uM, 0.0152416 µM) was 98.89 and 98.22 and 98.39 and 94.42 and 103 and 100.2 and 102.1 and 98.78, the “Huh7 viability” value ([3]; 0.045724740 uM, 0.0457247 µM) was 96.51 and 98.69 and 94.1 and 96.38 and 90.79 and 82.31 and 84.01 and 89.64 and the “Huh7 viability” value ([3]; 0.137174210 uM, 0.137174 µM) was 106.8 and 96.95 and 95.92 and 94.98 and 96.42 and 101.8 and 95.52 and 109.1. The “Huh7 viability” value ([3]; 0.411522630 uM, 0.411523 µM) was 95.23 and 97.59 and 96.23 and 88.28 and 94.64 and 96.4 and 105 and 96.39, the “Huh7 viability” value ([3]; 1.234567900 uM, 1.23457 µM) was 95.71 and 98.77 and 99.42 and 84.3 and 74.81 and 88.03 and 77.15 and 83 and 86.37 and the “Huh7 viability” value ([3]; 3.703703700 uM, 3.7037 µM) was 88.28 and 89.97 and 90.65 and 52.83 and 57.73 and 57.82 and 45.17 and 51.57 and 42.91. For the same compound, the “Huh7 viability” value ([3]; 11.111111100 uM, 11.1111 µM) was 75.95 and 74.95 and 78.75 and 46.5 and 49.1 and 49.17 and 39.05 and 40.11 and 38.75, the “Huh7 viability” value ([3]; 33.333333300 uM, 33.3333 µM) was 79.29 and 78.52 and 76.32 and 47.53 and 46.72 and 48.69 and 34.13 and 38.39 and 36.44 and the “Huh7 viability” value ([3]; 100.000000000 uM) was 80.41 and 81.45 and 81.11 and 48.76 and 54.16 and 52.59 and 35.21 and 39.74 and 37.9. The IC50 ([3]; Homo sapiens, Huh-7, 48 h, read-out: IC50, human hepatoma inhibition (viability)) was > 50 µM.
